Test results from ChEMBL document CHEMBL1201862, “PubChem BioAssay data set” (2004).
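Tested at 5 concentrations; 48 h exposure; 96-well plates; endpoints linearly interpolated, else capped at highest concentration. GI50 = concentration required for 50% inhibition of growth.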 The source made the active and inactive calls. Cut-off read from the data, not from the text of the source: active = GI50 up to about 1.1 µM and inactive = higher.

How the values were obtained:
Assay in all cases: NCI tumour cell line growth inhibition, 48 h
786-0 = test system: 786-0
A549 = test system: A549
ACHN = test system: ACHN
BT-549 = test system: BT-549
CAKI-1 = test system: CAKI-1
CCRF-CEM = test system: CCRF-CEM
COLO 205 = test system: COLO 205
DU-145 = test system: DU-145
EKVX = test system: EKVX
HCC 2998 = test system: HCC 2998
HCT-116 = test system: HCT-116
HCT-15 = test system: HCT-15
HL-60 = test system: HL-60
HOP-62 = test system: HOP-62
HOP-92 = test system: HOP-92
HT-29 = test system: HT-29
Hs-578T = test system: Hs-578T
IGROV-1 = test system: IGROV-1
K562 = test system: K562
KM12 = test system: KM12
LOX IMVI = test system: LOX IMVI
M14 = test system: M14
MCF7 = test system: MCF7
MDA-MB-231 = test system: MDA-MB-231
MDA-MB-435 = test system: MDA-MB-435
MDA-N = test system: MDA-N
MOLT-4 = test system: MOLT-4
Malme-3M = test system: Malme-3M
NCI-H226 = test system: NCI-H226
NCI-H23 = test system: NCI-H23
NCI-H460 = test system: NCI-H460
NCI-H522 = test system: NCI-H522
NCI/ADR-RES = test system: NCI/ADR-RES
OVCAR-3 = test system: OVCAR-3
OVCAR-4 = test system: OVCAR-4
OVCAR-5 = test system: OVCAR-5
OVCAR-8 = test system: OVCAR-8
PC-3 = test system: PC-3
RPMI-8226 = test system: RPMI-8226
RXF 393 = test system: RXF 393
SF-268 = test system: SF-268
SF-295 = test system: SF-295
SF-539 = test system: SF-539
SK-MEL-28 = test system: SK-MEL-28
SK-MEL-2 = test system: SK-MEL-2
SK-MEL-5 = test system: SK-MEL-5
SK-OV-3 = test system: SK-OV-3
SN12C = test system: SN12C
SNB-19 = test system: SNB-19
SNB-75 = test system: SNB-75
SR = test system: SR
SW-620 = test system: SW-620
T47D = test system: T47D
TK-10 = test system: TK-10
U-251 = test system: U-251
UACC-257 = test system: UACC-257
UACC-62 = test system: UACC-62
UO-31 = test system: UO-31
A498 = test system: A498

C=C(C)C(O)C(O)C[C@@H](C)C1CC[C@]23C[C@]12CCC1[C@@]2(C)CCC(OC(C)=O)C(C)(C)C2CC(OC2OC(CO)C(O)C(O)C2O)[C@]13C (some centres not stated)
GI50 (786-0): 19.1 µM (inactive) | GI50 (A549): 50 µM (inactive) | GI50 (ACHN): 31.6 µM (inactive) | GI50 (BT-549): 14.5 µM (inactive) | GI50 (CAKI-1): > 100 µM (inactive) | GI50 (CCRF-CEM): 14.2 µM (inactive) | GI50 (COLO 205): 17.6 µM (inactive) | GI50 (DU-145): 21.2 µM (inactive) | GI50 (EKVX): 42.2 µM (inactive) | GI50 (HCC 2998): 15.7 µM (inactive) | GI50 (HCT-116): 15.9 µM (inactive) | GI50 (HCT-15): 40.9 µM | GI50 (HL-60): 18.1 µM (inactive) | GI50 (HOP-62): 16.7 µM (inactive) | GI50 (HOP-92): 12.9 µM (inactive) | GI50 (HT-29): 18.2 µM (inactive) | GI50 (Hs-578T): 21 µM (inactive) | GI50 (IGROV-1): 15.3 µM (inactive) | GI50 (K562): 20.1 µM (inactive) | GI50 (KM12): 17.7 µM (inactive) | GI50 (LOX IMVI): 17.6 µM (inactive) | GI50 (M14): 15.2 µM (inactive) | GI50 (MCF7): 17 µM (inactive) | GI50 (MDA-MB-231): 15 µM (inactive) | GI50 (MDA-MB-435): 17.5 µM (inactive) | GI50 (MDA-N): 17.3 µM (inactive) | GI50 (MOLT-4): 18.5 µM (inactive) | GI50 (Malme-3M): 17.5 µM (inactive) | GI50 (NCI-H226): 20.6 µM (inactive) | GI50 (NCI-H23): 19.2 µM (inactive) | GI50 (NCI-H460): 17.9 µM (inactive) | GI50 (NCI-H522): 17 µM (inactive) | GI50 (NCI/ADR-RES): > 100 µM (inactive) | GI50 (OVCAR-3): 17.6 µM (inactive) | GI50 (OVCAR-4): 16 µM (inactive) | GI50 (OVCAR-5): 20.9 µM (inactive) | GI50 (OVCAR-8): 19.5 µM (inactive) | GI50 (PC-3): 18.4 µM (inactive) | GI50 (RPMI-8226): 21.5 µM (inactive) | GI50 (RXF 393): 15.4 µM (inactive) | GI50 (SF-268): 18.3 µM (inactive) | GI50 (SF-295): 18.9 µM (inactive) | GI50 (SF-539): 14.6 µM (inactive) | GI50 (SK-MEL-28): 22.5 µM (inactive) | GI50 (SK-MEL-2): 16.6 µM (inactive) | GI50 (SK-MEL-5): 18.9 µM (inactive) | GI50 (SK-OV-3): 20.9 µM (inactive) | GI50 (SN12C): 16.8 µM (inactive) | GI50 (SNB-19): 20 µM (inactive) | GI50 (SNB-75): 19.6 µM (inactive) | GI50 (SR): 18.7 µM (inactive) | GI50 (SW-620): 16.7 µM (inactive) | GI50 (T47D): 17.4 µM (inactive) | GI50 (TK-10): 20.8 µM (inactive) | GI50 (U-251): 15.7 µM (inactive) | GI50 (UACC-257): 17 µM (inactive) | GI50 (UACC-62): 17.7 µM (inactive) | GI50 (UO-31): > 100 µM (inactive)

COc1cc([C@@]23OC[C@@H]4[C@@H](OC[C@@H]42)c2cc4c(cc23)OCO4)cc(OC)c1OC
GI50 (786-0): < 0.01 µM (active) | GI50 (A498): < 0.01 µM (active) | GI50 (A549): < 0.01 µM (active) | GI50 (ACHN): < 0.0127 µM (active) | GI50 (BT-549): < 0.0304 µM (active) | GI50 (CAKI-1): < 0.0157 µM (active) | GI50 (CCRF-CEM): < 0.01 µM (active) | GI50 (COLO 205): < 0.01 µM (active) | GI50 (DU-145): < 0.01 µM (active) | GI50 (HCC 2998): < 0.01 µM (active) | GI50 (HCT-116): < 0.01 µM (active) | GI50 (HCT-15): < 0.01 µM | GI50 (HL-60): < 0.01 µM (active) | GI50 (HOP-62): < 0.01 µM (active) | GI50 (HT-29): < 0.01 µM (active) | GI50 (Hs-578T): < 0.01 µM (active) | GI50 (IGROV-1): < 0.01 µM (active) | GI50 (K562): < 0.0208 µM (active) | GI50 (KM12): < 0.01 µM (active) | GI50 (LOX IMVI): < 0.01 µM (active) | GI50 (M14): < 0.01 µM (active) | GI50 (MCF7): < 0.01 µM (active) | GI50 (MDA-MB-231): < 0.01 µM (active) | GI50 (MDA-MB-435): < 0.01 µM (active) | GI50 (MDA-N): < 0.01 µM (active) | GI50 (MOLT-4): < 0.01 µM (active) | GI50 (Malme-3M): 0.0838 µM (active) | GI50 (NCI-H226): < 0.01 µM (active) | GI50 (NCI-H23): < 0.01 µM (active) | GI50 (NCI-H460): < 0.01 µM (active) | GI50 (NCI-H522): < 0.01 µM (active) | GI50 (NCI/ADR-RES): < 0.01 µM (active) | GI50 (OVCAR-3): < 0.01 µM (active) | GI50 (OVCAR-4): 5.19 µM (inactive) | GI50 (OVCAR-5): > 48.2 µM (inactive) | GI50 (OVCAR-8): < 0.01 µM (active) | GI50 (PC-3): < 0.01 µM (active) | GI50 (RXF 393): 0.873 µM (active) | GI50 (SF-268): 0.0851 µM (active) | GI50 (SF-295): < 0.01 µM (active) | GI50 (SF-539): < 0.01 µM (active) | GI50 (SK-MEL-28): 23.5 µM (inactive) | GI50 (SK-MEL-2): < 0.01 µM (active) | GI50 (SK-MEL-5): < 0.01 µM (active) | GI50 (SK-OV-3): < 0.01 µM (active) | GI50 (SNB-19): < 0.01 µM (active) | GI50 (SNB-75): < 0.01 µM (active) | GI50 (SR): < 0.01 µM (active) | GI50 (SW-620): < 0.01 µM (active) | GI50 (T47D): 50.8 µM (inactive) | GI50 (U-251): < 0.01 µM (active) | GI50 (UACC-257): < 0.01 µM (active) | GI50 (UACC-62): < 0.01 µM (active) | GI50 (UO-31): < 0.01 µM (active)
